From PMC6033897, “Characterization and Validation of a Human 3D Cardiac Microtissue for the Assessment of Changes in Cardiac Pathology” (Scientific Reports, 2018)
Structures can show the parent of a compound that is named as a salt.

Tests used:
[1] = tested on: cardiac microtissues; experiment: Mitochondrial membrane potential (ΔΨm, TMRE imaging) in cardiac microtissues; type: cell-based, human; conditions: for IC50: read-out: Mitochondrial membrane potential (ΔΨm) IC50
Description: (§1) Cardiac microtissues were stained with fluorescent probes in cell culture media, 40 µl media was removed and 40 µl of 2x multiplexed dye was added back to the well for 30 minutes at 37 °C, 5% CO2. Fluorescent probes used were ER-Tracker blue (2 µM) to measure endoplasmic reticulum (ER) integrity and TMRE (500 nM) to measure mitochondrial membrane potential (ΔΨm). All microtissues were imaged on a Cell Voyager 7000 (YokogawaInc.) and images captured using a 20x objective (Olympus UPLSAPO 0.75 NA, 0.6 mm WD), with a 2 × 2 bin. Plates are imaged live, prior to use the stage temperature was set to 37 °C and CO2 level at 5%. […] Transmitted light images were acquired using a 100 W Halogen lamp as an illumination source. Images were captured over a 60 μm range in the Z-axis with a 5 μm interval between slices. Z-stack images were output as a maximal projection of multiple z-planes.
(§2) Maximum projection images were imported and analysed in the Columbus Platform (v2.7, Perkin Elmer Inc.).

[2] = tested on: cardiac microtissues; experiment: Cellular viability (ATP depletion, CellTiter-Glo) in cardiac microtissues; type: cell-based, human; conditions: for IC50: read-out: Cellular viability (ATP depletion) IC50
Description: (§3) Cellular ATP concentrations were assessed using the CellTiter-Glo® Luminescent Cell Viability Assay as per the manufacturer’s instructions (Promega); for cardiac microtissues 40 µl media was removed prior to the addition of 40 µl CellTiter-Glo® reagent. […] Data from the same treatment on minimum of 3 occasions were averaged to represent the mean ATP measurement.

[3] = tested on: cardiac microtissues; experiment: ER integrity (ER-Tracker blue imaging) in cardiac microtissues; type: cell-based, human; conditions: for IC50: read-out: ER integrity IC50
Description: as §1, §2

[4] = total Cmax, therapeutically relevant maximum total plasma concentration; source not given; cited from earlier work
[5] = tested on: cardiac microtissues; experiment: Therapeutic index (IC50 in cardiac microtissues divided by total Cmax); type: cell-based, human
[6] = tested on: hiPS-CM; experiment: Mitochondrial membrane potential (ΔΨm) in 2D monoculture; type: cell-based; conditions: Homo sapiens
Description: (§4) For 2D monoculture, hiPS-CM, hCMEC and hCF were cultured as described above and seeded in CellCarrier-384 Ultra microplates (Perkin Elmer, 6057300) at 5000, 2500 and 1750 cells/well respectively.
(§5) Monoculture cells were stained with fluorescent probes diluted in cell culture media, 25 µl media was removed and 25 µl of 2x multiplexed dye was added back to the well for 15 minutes at 37 °C, 5% CO2.

[7] = tested on: hCMEC; experiment: as above; type: cell-based; conditions: Homo sapiens
Description: as §4, §5

[8] = tested on: hCF; experiment: Cellular viability (ATP depletion) in 2D monoculture; conditions: Homo sapiens, read-out: Cellular viability (ATP depletion) IC50
[9] = tested on: hiPS-CM; experiment: as above; type: cell-based; conditions: Homo sapiens
Description: as §4, §3

[10] = tested on: hCMEC; experiment: as above; type: cell-based; conditions: Homo sapiens
Description: as §4, §3

[11] = tested on: hCF; experiment: ER integrity in 2D monoculture; conditions: Homo sapiens, read-out: ER integrity IC50
[12] = tested on: hiPS-CM; experiment: ER integrity in 2D monoculture; type: cell-based; conditions: Homo sapiens
Description: as §4, §5

[13] = tested on: hCMEC; experiment: ER integrity in 2D monoculture; type: cell-based; conditions: Homo sapiens
Description: as §4, §5

[14] = tested on: hCF; experiment: Mitochondrial membrane potential (ΔΨm) in 2D monoculture; conditions: Homo sapiens, read-out: Mitochondrial membrane potential (ΔΨm) IC50
[15] = tested on: H9c2 cells; design: method as in PMID 18664550; conditions: read-out: reported IC50 value in H9c2 cells; cited from earlier work
[16] = tested on: hESC-CMs; conditions: read-out: reported IC50 value in hESC-CMs; cited from earlier work
[17] = tested on: cardiac microtissues; experiment: Histopathology (H&E, IHC, IF) of treated cardiac microtissues; type: cell-based, human; conditions: 24 hours; sunitinib 100 µM; doxorubicin 0.1 and 30 µM (Fig. 2)
Description: Microtissues were harvested from 384 well-plates and washed twice in 1x PBS (Sigma P7059) subsequent to fixation in 3.7% paraformaldehyde (PFA) (Sigma F1635) at 4 °C for one hour. The 3.7% PFA was then removed and replaced with two washes of 1x PBS. The PBS was removed and replaced with liquid HistoGel (Thermo Fisher HG-4000-012) and left on ice for 30 minutes to solidify. The HistoGel pellet was placed into a histological cassette and processed using an enclosed tissue processor overnight. The HistoGel was then embedded using paraffin wax.
The formalin fixed paraffin embedded (FFPE) blocks were then sectioned at each time point at three 50 µm step levels with 8 × serial sections per level at 3 µm. H&E staining was performed on microtissue sections using Mayer’s Haematoxylin using a standard automated protocol. Standard automated immunohistochemistry (IHC) and immunofluorescence (IF) protocols were used for primary antibody detection at different dilutions (Supplementary Table 3) on microtissue sections. Diaminobenzadine (DAB) (Roche Diagnostics 760–159) was used to visualise positive staining in single-plex staining and Alkaline Phosphatase Fast Red (Roche Diagnostics 760–160) with DAB were used in dual staining, with a haematoxylin counterstain. […] A minimum of 15 microtissues per time point/treatment were evaluated. […]

[18] = Homo sapiens, cardiac microtissues, 72 hours, geometric mean
[19] = cardiac microtissues, 72 hours, geometric mean
[20] = cardiac microtissues, mechanistic fingerprint

IC50 [1, 18]	IC50 [3, 18]	SMILES	IC50 [2, 18]	Cmax [4]	also measured
> 100 µM	> 100 µM	Nc1nc2c(ncn2COCCO)c(=O)[nH]1 [Acyclovir]	> 100 µM	6660 nM	
> 50 µM	3.56 µM	C[C@@H]1[C@H](O)[C@@H](C)/C=C/C=C/C=C/C=C/C=C/C=C/C=C/[C@H](O[C@@H]2O[C@H](C)[C@@H](O)[C@H](N)[C@@H]2O)C[C@@H]2O[C@](O)(C[C@@H](O)C[C@@H](O)[C@H](O)CC[C@@H](O)C[C@@H](O)CC(=O)O[C@H]1C)C[C@H](O)[C@H]2C(=O)O [Amphotericin B]	37.6 µM	9000 nM	
> 100 µM	> 100 µM	O=C1CC2(CCCC2)CC(=O)N1CCCCN1CCN(c2ncccn2)CC1 [Buspirone HCl]	56.4 µM	30 nM	
		COc1cc(N)c(Cl)cc1C(=O)NC1CCN(CCCOc2ccc(F)cc2)CC1OC (stereo not drawn) [Cisapride Hydrate]		170 nM	IC50 [1, 19]: > 100 µM; IC50 [2, 19]: 76.4 µM; IC50 [3, 19]: 32.8 µM
		CN1CCN(C2=Nc3cc(Cl)ccc3Nc3ccccc32)CC1 [Clozapine]		470 nM	
		O=P1(N(CCCl)CCCl)NCCCO1 (stereo not drawn) [Cyclophosphamide]		153000 nM	IC50 ([1]; Homo sapiens, 72 h): 65.7 µM; IC50 ([2]; Homo sapiens, 72 h): 54.4 µM; IC50 ([3]; Homo sapiens, 72 h): 60.7 µM
> 100 µM	> 100 µM	Cc1nc(Nc2ncc(C(=O)Nc3c(C)cccc3Cl)s2)cc(N2CCN(CCO)CC2)n1 [Dasatinib]	27.1 µM		Therapeutic index (TI): lowest IC50 of ΔΨm, ER integrity or ATP depletion / total Cmax [5]: ≤ 100 times Cmax
> 30 µM	> 30 µM	C#Cc1cccc(Nc2ncnc3cc(OCCOC)c(OCCOC)cc23)c1 [Erlotinib]	20.8 µM	3000 nM	
11.3 µM	60 µM	O=c1[nH]cc(F)c(=O)[nH]1 [Fluorouracil]	27.5 µM	4610 nM	
> 100 µM	> 100 µM	Cc1ccc(C)c(OCCCC(C)(C)C(=O)O)c1 [Gemfibrozil]	> 100 µM	99900 nM	
0.97 µM	1.67 µM	CC(=O)[C@]1(O)Cc2c(O)c3c(c(O)c2[C@@H](O[C@H]2C[C@H](N)[C@H](O)[C@H](C)O2)C1)C(=O)c1ccccc1C3=O [Idarubicin HCl]	0.03 µM	120 nM	
59.2 µM	76.9 µM	CC(C)NCC(O)c1ccc(O)c(O)c1 (stereo not drawn) [Isoproterenol HCl]	> 100 µM	10 nM	
> 100 µM	> 100 µM	CC(C(=O)O)c1cccc(C(=O)c2ccccc2)c1 (stereo not drawn) [Ketoprofen]	37.6 µM		
2.84 µM	> 100 µM	CS(=O)(=O)CCNCc1ccc(-c2ccc3ncnc(Nc4ccc(OCc5cccc(F)c5)c(Cl)c4)c3c2)o1 [Lapatinib]	12.9 µM	4180 nM	ΔΨm modulated at multiple of total Cmax [1, 20]: ≤ 1 times the total Cmax; IC50 ([6]; 24 hours): 31.9 µM; IC50 ([6]; 72 hours): 23.6 µM; IC50 ([7]; 24 hours): 5.47 µM; IC50 ([7]; 72 hours): 11.6 µM; IC50 ([8]; 24 h): 21.6 µM; IC50 ([8]; 72 h): 11 µM; IC50 ([9]; 72 hours): > 100 µM; IC50 ([10]; 24 hours): 16.2 µM; IC50 ([10]; 72 hours): 3.07 µM; Cellular viability modulated at multiple of total Cmax [2, 20]: ≤ 10 times the total Cmax; IC50 ([11]; 24 h): 14.7 µM; IC50 ([11]; 72 h): 11 µM; ER integrity modulated at multiple of total Cmax [3, 20]: ≤ 100 times the total Cmax; IC50 ([12]; 24 hours): 23.6 µM; IC50 ([12]; 72 hours): 3.1 µM; IC50 ([13]; 24 hours): 26.7 µM; IC50 ([13]; 72 hours): 4.4 µM; IC50 ([14]; 24 h): 42.9 µM; IC50 ([14]; 72 h): 28.8 µM
> 50 µM	5.97 µM	COC(=O)Nc1nc2ccc(C(=O)c3ccccc3)cc2[nH]1 [Mebendazole]	> 50 µM	2030 nM	
		CN(C)CCN(Cc1cccs1)c1ccccn1 [Methapyrilene]		15300 nM	
> 50 µM	> 50 µM	Nc1cc(N2CCCCC2)nc(N)[n+]1[O-] [Minoxidil]	> 50 µM	14800 nM	
		O=C1C[C@@H](c2ccc(O)cc2)Oc2cc(O)cc(O)c21 [Narigenin]		15400 nM	IC50 [1, 19]: > 100 µM; IC50 [2, 19]: 62.5 µM; IC50 [3, 19]: > 100 µM
> 100 µM	0.82 µM	O=C(C1CCCCC1)N1CC(=O)N2CCc3ccccc3C2C1 (stereo not drawn) [Praziquantel]	10.1 µM	640 nM	
8.22 µM	6.42 µM	CNC(=O)c1cc(Oc2ccc(NC(=O)Nc3ccc(Cl)c(C(F)(F)F)c3)cc2)ccn1 [Sorafenib Tosylate]	8.72 µM		IC50 [15]: 44.9 µM; IC50 [16]: 15.2 µM
2.58 µM	0.39 µM	CCN(CC)CCNC(=O)c1c(C)[nH]c(/C=C2\C(=O)Nc3ccc(F)cc32)c1C [Sunitinib Malate]	8.23 µM	250 nM	IC50 ([6]; 24 hours): 16.1 µM; IC50 ([6]; 72 hours): 16.2 µM; IC50 ([7]; 24 hours): 9.57 µM; IC50 ([7]; 72 hours): 2.97 µM; IC50 ([8]; 24 h): 16.5 µM; IC50 ([8]; 72 h): 4 µM; IC50 ([9]; 24 hours): 24.7 µM; IC50 ([9]; 72 hours): 27.1 µM; IC50 ([10]; 24 hours): 4.9 µM; IC50 ([10]; 72 hours): 0.8 µM; Histopathological / morphological changes [17]: clear reduction in overall cellularity; IC50 ([2]; Homo sapiens, cardiac microtissues, 24 hours): 46.2 µM; IC50 ([11]; 24 h): 6.59 µM; IC50 ([11]; 72 h): 0.37 µM; IC50 ([12]; 24 hours): 4.48 µM; IC50 ([12]; 72 hours): 2.63 µM; IC50 ([13]; 24 hours): 2.96 µM; IC50 ([13]; 72 hours): 12.7 µM; IC50 ([14]; 24 h): 17.8 µM; IC50 ([14]; 72 h): 11.6 µM
> 100 µM	23.7 µM	CC(C)(C)c1ccc(C(O)CCCN2CCC(C(O)(c3ccccc3)c3ccccc3)CC2)cc1 (stereo not drawn) [Terfenadine]	13 µM	130 nM	

SMILES	IC50 [1, 18]	IC50 [3, 18]	IC50 [2, 18]	Cmax [4]	also measured
CC(C)C[C@H](NC(=O)[C@H](Cc1ccccc1)NC(=O)c1cnccn1)B(O)O [Bortezomib]	1.62 µM	91.8 µM	0.35 µM	290 nM	
O=C1c2c(O)ccc(O)c2C(=O)c2c(NCCNCCO)ccc(NCCNCCO)c21 [Mitoxantrone diHCl]	0.98 µM	1.1 µM	0.29 µM		
